Source: US8927280B2, “Compositions and methods for promoting the generation of definitive endoderm” (President and Fellows of Harvard College, priority 2009, dated 2015)

Tested on: gut tube of E8.75 mouse embryos
Assay: Injection of compound induced endoderm into gut tube of E8.75 mouse embryos, ex vivo embryo culture
Format: in vivo
Settings: for incorporation of induced endodermal cells into gut tube (in words): FoxA2, Cldn6 and YFP staining; for embryos in which induced cells integrated into the gut: cells treated 6 days, injected into E8.75 embryos, 24-30 hrs ex vivo culture
Protocol: Mouse E8.5 ICR embryos were dissected in Hanks Balanced Salt Solution and cultured in the DMEM/F12 (Invitrogen) media supplemented with 50% rat serum (Valley Biomedical), penicillin, streptomycin, glutamine at 37° C. for 20-24 hrs. The YFP mouse ES cells were cultured in the presence of hit compounds for 6 days to induce endoderm formation and then cells were dissociated with trypsin and approx. 100 000 cells were injected into gut tube of E8.75 embryos. Following injections, embryos were transferred to rotating bottle culture unit and were then cultured in media (1.5-2 ml per embryo) as above under humidified conditions at 40% O2, 5% CO2, 55% N2, and 37° C. After 30 hrs culture, embryos were fixed in 4% paraformaldehyde in PBS, embedded in tissue-tek and cryosections were stained with antibodies against Cld6, FoxA2 an YFP.
For chemically derived endoderm to be useful, it is important to determine its developmental potential, beyond the expression of endodermal markers. The ultimate goal is to direct the cells to form functional beta cells. To begin to address this possibility and functional potential of derived populations, mouse ES cells ubiquitously expressing enhanced yellow fluorescent protein (EYFP) (Hadjantonakis et al., 2002) were induced to form endoderm with IDE1, IDE2, or DMSO (control). At day 6 of treatment, the inventors dissociated and injected the cells into the gut tube (a derivative of endoderm) of live E8.75 embryos. The lumen of the gut tube can be accessed prior to the completion of embryonic turning and gut tube closure and therefore provides a developmental window for functional assessment of ES-derived endoderm cells. Chemically derived endoderm was injected into the primitive gut tube at the anterior and posterior intestinal portals. At this time the gut tube is still open and anterior intestinal portal is accessible (FIG. 6A). The embryos were cultured ex vivo for 24-30 hrs during which time the lateral walls of the embryonic gut fold ventrally and the gut tube closes, around E9.5. […] Cells induced by IDE1 treatment integrated into the gut, in 8 out of 35 cases, and in 7 out of 29 embryos for IDE2. Conversely, DMSO (control) treated cells never integrate into the developing gut tube (0/10 and 0/11, respectively) and instead remain in the lumen (FIG. 6B).

SMILES	incorporation of induced endodermal cells into gut tube (in words)	embryos in which induced cells integrated into the gut
O=C(O)CCCCCC(=O)N/N=C/c1ccccc1C(=O)O [IDE1]	incorporate into gut tube and show expression of gut tube markers	8 out of 35
O=C(O)CCCCCC(=O)NN=C1CCCC1 [IDE2]	incorporate into gut tube and show expression of gut tube markers	7 out of 29
